Source: US20200399262A1, “COMPOUNDS FOR INHIBITING PROTEIN DEGRADATION AND METHODS OF USE THEREOF IN THE TREATMENT OF CANCER” (PI Therapeutics Ltd, priority 2018, published 2020)

How the values were obtained:
Type in all cases: cell-based
HCT 116 = experiment: Cell viability panel, ATPlite 1Step; settings: Homo sapiens, Colon carcinoma, 72 h exposure, read-out: Compound EC50
Procedure: (§1) Cell viability panel studies. Cells were diluted in the corresponding ATCC recommended medium and dispensed in a 384-well plate, depending on the cell line used, at a density of 200-6400 cells per well. For each used cell line, the optimal cell density was used. Compound was serially diluted and 8 concentration (0.04-32 μM) were added to the cells for 72 h exposure. At t=end, of ATPlite 1Step™ (PerkinElmer) were used to calculate cell viability. Cell lines marked with asterisk were seeded 24 h prior to treatment in 96-well plates at the density range of 5,000-40,000 cells/well, according to duplication rate, in RPMI 1640 medium containing 10% fetal bovine serum and 2 mM L-glutamine. Compounds were diluted from 10 mM DMSO stock and treatment was applied at the range of 0.04-1 μM. Following incubation at 37° C. for 48 hours with increasing concentrations of the compounds, viability was determined with CyQUANT® Direct Assay Kit (Invitrogen). Output intensities were normalized to values after treatment with DMSO alone, and EC50 values were calculated using the absorbance measurements [time zero, (Tz), growth control, (C), plus the test growth at the four drug concentration levels (Ti)] as follows: [(Ti−Tz)/(C−Tz)]×100 for concentrations for which Ti>/=Tz; [(Ti−Tz)/Tz]×100 for concentrations for which Ti−<Tz.

SHP-77 = experiment: Cell viability panel, ATPlite 1Step; settings: Homo sapiens, SHP77, Small cell lung carcinoma, 72 h exposure, read-out: Compound EC50
Procedure: as §1

SR = experiment: Cell viability panel, ATPlite 1Step; settings: Homo sapiens, Anaplastic large cell lymphoma, 72 h exposure, read-out: Compound EC50
Procedure: as §1

SW948 = experiment: Cell viability panel, ATPlite 1Step; settings: Homo sapiens, Colon adenocarcinoma, 72 h exposure, read-out: Compound EC50
Procedure: as §1

HCC-2998 = experiment: NCI60 screen cytotoxicity; settings: Homo sapiens, Colon cancer, read-out: Compound B1 EC50
HT-29 = experiment: NCI60 screen cytotoxicity; settings: Homo sapiens, Colon cancer, read-out: Compound B1 EC50
MOLT-4 = experiment: NCI60 screen cytotoxicity; settings: Homo sapiens, Leukemia, read-out: Compound B1 EC50
HL-60 = experiment: NCI60 screen cytotoxicity; settings: Homo sapiens, Leukemia, read-out: Compound B1 EC50
A-549 = experiment: NCI60 screen cytotoxicity; settings: Homo sapiens, A549, Lung cancer, read-out: Compound B1 EC50
IGR-OV1 = experiment: NCI60 screen cytotoxicity; settings: Homo sapiens, IGROV-1, Ovarian cancer, read-out: Compound B1 EC50
OVCAR-5 = experiment: NCI60 screen cytotoxicity; settings: Homo sapiens, Ovarian cancer, read-out: Compound B1 EC50
SK-MEL-28 = experiment: NCI60 screen cytotoxicity; settings: Homo sapiens, Melanoma, read-out: Compound B1 EC50
SK-MEL-5 = experiment: NCI60 screen cytotoxicity; settings: Homo sapiens, Melanoma, read-out: Compound B1 EC50
SF-295 = experiment: NCI60 screen cytotoxicity; settings: Homo sapiens, CNS, read-out: Compound B1 EC50
SNB-19 = experiment: NCI60 screen cytotoxicity; settings: Homo sapiens, CNS, read-out: Compound B1 EC50
[1] = system: UPR branches (PERK, ATF6 and IRE1alpha); experiment: UPR activation in MM1.S cells (immunoblot, RT-PCR); settings: 200 nM
Procedure: MM1.S cells were treated with 200 nM of Compound B1 for the indicated time points. Following the stated incubation periods the cells were harvested, lysed and resolved on SDS-PAGE gel. Proteins were transferred to PVDF membrane and immunoblotted with the indicated antibodies: FIG. 7A: anti phospho JNK, FIG. 7B: anti JNK, FIG. 7C: anti ATF6. FIG. 7D: anti phospho eIF2alpha, FIG. 7E: anti eIF2alpha, FIG. 7F: anti ATF4. XBP1 splicing was performed on cDNA (FIG. 7G), RNA was extracted cDNA was generated by RT-PCR and XPB1 transcript was amplified by PCR with gene specific primers. Splicing was detected by differential migration of XBP1 transcript on agarose gel. Transcriptional changes of CHOP (FIG. 7K) and ATF4 (FIG. 7J) were estimated by quantitative PCR with gene specific primers. Relative gene expression levels were normalized to GAPDH. Cleaved form of ATF6 and spliced XBP1 is indicated with arrow.
Protein analysis by Western blot. At the end of treatment period, the cells were lysed with M-PER mammalian protein extraction reagent (ThermoFisher Scientific) supplemented with protease inhibitors. Equal protein amounts were resolved on pre-cast SDS-PAGE (ThermoFisher Scientific) and transferred to a PVDF membrane. The membrane was immunoblotted with antibodies as indicated. The following antibodies were used: Ub MAb (SC-8017, Santa-Cruz), ATF4, ATF6, phospho JNK, JNK (Cell signaling); eIF2alpha, phospho eIF2alpha (Novus).
RT-PCR: MM cells were treated with compounds as indicated. Total RNA was extracted using RNAeasy kit (QIAGEN) and cDNA was synthesized using reverse transcriptase (Quantaces biosciences). mRNA levels of ATF4 and CHOP were determined by quantitative PCR using a StepOnePlus™ Real Time PCR system (Life Technologies) with gene specific assays (Thermo Scientific). XBP splicing were addressed by differential migration of XBP-1 gene transcript full size versus spliced form on 2% Agarose gel.

[2] = system: autophagic vacuoles in MM1.S cells; experiment: Autophagy quantification with CYTO-ID dye, flow cytometry; settings: 0.2 μM, 5 hours, vs vehicle
Procedure: MM1.S cells were treated with 0.2 μM Compound B1 or vehicle (DMSO) for 5 h. Detection of autophagy vesicles was done by CYTO-ID® green autophagy dye that selectively labels autophagic vacuoles. The samples were analyzed using flow cytometer and the data were plotted on histogram: cell counts vs. FITC fluorescence intensity.
Autophagy Quantification: Quantification of autophagosomes were done with CytoID (ENZO). CYTO-ID® Autophagy Detection Kit measures autophagic vacuoles and monitors autophagic flux in live cells using a dye that selectively labels autophagic vacuoles. The probe is a cationic amphiphilic tracer dye that rapidly partitions into cells in a similar manner as drugs that induce phospholipidosis. MM1.S cells were treated with Compound B1 or vehicle for 5 hours. Following treatment period the cells were harvested and stained with CytoID dye according to manufacturer instructions. Autophagosomes were analyzed and quantified using flow cytometer (Miltenyi). Data of cell counts were plotted as FITC (FL1) fluorescence intensity.

CN(C)CCCS(=O)(=O)N1C/C(=C\c2ccc(C#N)cc2)C(=O)/C(=C/c2ccc(C#N)cc2)C1 [Compound AA]
EC50 (HCT 116): < 300 nM | EC50 (SHP-77): 300 to 1000 nM | EC50 (SR): < 300 nM | EC50 (SW948): < 300 nM

CN(C)CC(=O)NCC(=O)N1C/C(=C\c2ccc(C#N)cc2)C(=O)/C(=C/c2ccc(C#N)cc2)C1 [Compound B1]
EC50 (HCC-2998): < 300 nM | EC50 (HT-29): 300 to 1000 nM | EC50 (MOLT-4): < 300 nM | EC50 (HL-60): < 300 nM | EC50 (A-549): 300 to 1000 nM | EC50 (IGR-OV1): < 300 nM | EC50 (OVCAR-5): < 300 nM | EC50 (SK-MEL-28): 300 to 1000 nM | EC50 (SK-MEL-5): 300 to 1000 nM | EC50 (SF-295): < 300 nM | EC50 (SNB-19): 300 to 1000 nM | eIF2alpha phosphorylation (PERK activation) ([1]; after 1 hr of treatment): increases eI2Falpha phosphorylation | XBP splicing ([1]; differential migration of XBP gene transcript): Spliced XBP was detected | ATF6 full size form ([1]; immunoblot): short term upregulation of ATF6 full size form followed by a rapid decline | phosphorylated JNK ([1]; immunoblot, no change in total protein levels): significant upregulation in phosphorylated JNK | ATF4 and CHOP transcription (quantitative PCR) ([1]; peaking at 3 hr post treatment): transcriptional increase of both ATF4 and CHOP | autophagosomal vesicles (CYTO-ID fluorescence) [2]: significantly lower fluorescent dye then vehicle treated cells
